Experimental data from patent US11208421B2, “2-carboxypenam compound or salt thereof, pharmaceutical composition containing novel 2-carboxypenam compound or salt thereof, and applications thereof” (priority 2017, dated 2021).
≈ marks a conversion by molar mass, not a printed value.

What was measured:
Format in all cases: cell-based
[1] = tested on: Pseudomonas aeruginosa strain ATCC 27853; assay: Antibacterial activity evaluation test (MIC), broth microdilution, strain ATCC 27853; details: for MIC: Pseudomonas aeruginosa, ATCC27853, read-out: MIC Pseudomonas aeruginosa strain ATCC 27853; for MIC Pseudomonas aeruginosa strain ATCC 27853: cation-adjusted Mueller-Hinton medium supplemented with 20 M of apotransferrin, 35° C., 16 to 20 hours
Description: (§1) The minimum inhibitory concentration (MIC) was measured according to the Clinical and Laboratory Standards Institute (CLSI) standard method by using the following broth microdilution method.
(§2) As bacteria, a Pseudomonas aeruginosa strain ATCC 27853, a Pseudomonas aeruginosa AmpC derepression mutant strain S-3028, and a Pseudomonas aeruginosa IMP-1-producing strain S-2838 were used.
(§3) The Pseudomonas aeruginosa AmpC-derepression mutant strain S-3028 or the Pseudomonas aeruginosa IMP-1-producing strain S-2838 was cultured on a Mueller Hinton agar medium overnight, thereby preparing test bacterial cells. The obtained test bacterial cells were scraped off, suspended to yield 0.5 McFarland equivalence, and diluted 10-fold to obtain an inoculum. A cation-adjusted Mueller Hinton medium containing a test compound was inoculated with 0.0005 mL of the inoculum, and the cells were cultured at 35° C. for 16 to 20 hours. The minimum drug concentration at which the growth of bacteria was not visually observed was defined as MIC.
The MIC of the Pseudomonas aeruginosa ATCC strain 27853 was measured in the same manner as described above by using a cation-adjusted Mueller-Hinton medium supplemented with […] of apotransferrin as a final concentration.

[2] = tested on: Pseudomonas aeruginosa AmpC derepression mutant strain S-3028; assay: Antibacterial activity evaluation test (MIC), broth microdilution, AmpC derepression mutant strain S-3028; details: for MIC: Pseudomonas aeruginosa, read-out: MIC Pseudomonas aeruginosa strain S-3028; for MIC Pseudomonas aeruginosa strain S-3028: AmpC derepression mutant, cation-adjusted Mueller Hinton medium, 35° C., 16 to 20 hours
Description: as §1, §2, §3

[3] = tested on: Pseudomonas aeruginosa IMP-1-producing strain S-2838; assay: Antibacterial activity evaluation test (MIC), broth microdilution, IMP-1-producing strain S-2838; details: for MIC: Pseudomonas aeruginosa, read-out: MIC Pseudomonas aeruginosa strain S-2838; for MIC Pseudomonas aeruginosa strain S-2838: IMP-1-producing strain, cation-adjusted Mueller Hinton medium, 35° C., 16 to 20 hours
Description: as §1, §2, §3

| SMILES | MIC [1] | MIC [2] | MIC [3] | MIC Pseudomonas aeruginosa strain ATCC 27853 [1] | MIC Pseudomonas aeruginosa strain S-3028 [2] | MIC Pseudomonas aeruginosa strain S-2838 [3] |
| --- | --- | --- | --- | --- | --- | --- |
| CC(C)(O/N=C(\C(=O)N[C@@H]1C(=O)N2C[C@](SCCNC(=O)c3ccc(O)c(O)c3Cl)(C(=O)O)SC12)c1csc(N)n1)C(=O)O (stereo partly drawn) [Example 18, (3R,5R,6R)-6-((Z)-2-(2-aminothiazol-4-yl)-2-(((2-carboxypropan-2-yl)oxy)imino)acetamide)-3-((2-(2-chloro-3,4-dihydroxybenzamide)ethyl)thio)-7-oxo-4-thia-1-azabicyclo[3.2.0]heptane-3-carboxylic acid] | 0.125 µg/mL (≈ 0.181 µM) | 2 µg/mL (≈ 2.9 µM) | 4 µg/mL (≈ 5.8 µM) | – | – | – |
| CC(C)(O/N=C(\C(=O)N[C@@H]1C(=O)N2C[C@](SCCNC(=O)C(=O)c3ccc(O)c(O)c3)(C(=O)O)S[C@H]12)c1csc(N)n1)C(=O)O [Example 7, (3R,5R,6R)-6-((Z)-2-(2-aminothiazol-4-yl)-2-(((2-carboxypropane-2-yl)oxy)imino)acetamide)-3-((2-(2-(3,4-dihydroxyphenyl)-2-oxoacetamide)ethyl)thio)-7-oxo-4-thia-1-azabicyclo[3.2.0]heptane-3-carboxylic acid] | – | – | – | 0.125 µg/mL (≈ 0.183 µM) | 16 µg/mL (≈ 23.4 µM) | 4 µg/mL (≈ 5.86 µM) |
| CC(C)(O/N=C(\C(=O)N[C@@H]1C(=O)N2C[C@](SCCNC(=O)/C(=N/N3CCOCC3)c3ccc(O)c(O)c3Cl)(C(=O)O)S[C@H]12)c1csc(N)n1)C(=O)O [Example 10, (3R,5R,6R)-6-((Z)-2-(2-aminothiazole-4-yl)-2-(((2-carboxypropan-2-yl)oxy)imino)acetamide)-3-((2-((E)-2-(2-chloro-3,4-dihydroxyphenyl)-2-(morpholinoimino)acetamide)ethyl)thio)-7-oxo-4-thia-1-azabicyclo[3.2.0]heptane-3-carboxylic acid] | 1 µg/mL (≈ 1.25 µM) | > 128 µg/mL | 32 µg/mL (≈ 39.9 µM) | – | – | – |
| COC[C@H](CS[C@]1(C(=O)O)CN2C(=O)[C@@H](NC(=O)/C(=N\OC(C)(C)C(=O)O)c3csc(N)n3)[C@H]2S1)NC(=O)C(=O)c1ccc(O)c(O)c1Cl [Example 3, (3R,5R,6R)-6-((Z)-2-(2-aminothiazol-4-yl)-2-(((2-carboxypropan-2-yl)oxy)imino)acetamide)-3-(((R)-2-(2-(2-chloro-3,4-dihydroxyphenyl)-2-oxoacetamide)-3-methoxypropyl)thio)-7-oxo-4-thia-1-azabicyclo[3.2.0]heptane-3-carboxylic acid] | – | – | – | ≤0.0625 µg/mL | 0.5 µg/mL (≈ 0.657 µM) | 1 µg/mL (≈ 1.31 µM) |
| CC(C)(O/N=C(\C(=O)N[C@@H]1C(=O)N2C[C@](SCCNNC(=O)c3ccc(O)c(O)c3Cl)(C(=O)O)S[C@H]12)c1csc(N)n1)C(=O)O [Example 28, (3R,5R,6R)-6-((Z)-2-(2-aminothiazol-4-yl)-2-(((2-carboxypropan-2-yl)oxy)imino)acetamide)-3-((2-(2-(2-chloro-3,4-dihydroxybenzoyl)hydradienyl)ethyl)thio)-7-oxo-4-thia-1-azabicyclo[3.2.0]heptane-3-carboxylic acid] | – | – | – | 1 µg/mL (≈ 1.42 µM) | 1 µg/mL (≈ 1.42 µM) | 1 µg/mL (≈ 1.42 µM) |
| CC(C)(O/N=C(\C(=O)N[C@@H]1C(=O)N2C[C@](SC3CN(C(=O)C(=O)c4ccc(O)c(O)c4Cl)C3)(C(=O)O)S[C@H]12)c1csc(N)n1)C(=O)O [Example 2, (3R,5R,6R)-6-((Z)-2-(2-aminothiazol-4-yl)-2-(((2-carboxypropan-2-yl)oxy)imino)acetamide)-3-((1-(2-(2-chloro-3,4-dihydroxyphenyl)-2-oxoacetyl)azetidin-3-yl)thio)-7-oxo-4-thia-1-azabicyclo[3.2.0]heptane-3-carboxylic acid] | – | – | – | ≤0.0625 µg/mL | 4 µg/mL (≈ 5.49 µM) | 16 µg/mL (≈ 21.9 µM) |
| CC(C)(O/N=C(\C(=O)N[C@@H]1C(=O)N2C[C@](SCCNC(=O)C(=O)c3cc(O)c(O)cc3Cl)(C(=O)O)S[C@H]12)c1csc(N)n1)C(=O)O [Example 23, (3R,5R,6R)-6-((Z)-2-(2-aminothiazol-4-yl)-2-(((2-carboxypropan-2-yl)oxy)imino)acetamide)-3-((2-(2-(2-chloro-4,5-dihydroxyphenyl)-2-oxoacetamide)ethyl)thio)-7-oxo-4-thia-1-azabicyclo[3.2.0]heptane-3-carboxylic acid] | – | – | – | 1 µg/mL (≈ 1.39 µM) | 2 µg/mL (≈ 2.79 µM) | 4 µg/mL (≈ 5.58 µM) |
| CC(C)(O/N=C(\C(=O)N[C@@H]1C(=O)N2C[C@](SC3CN(C(=O)/C(=N\O)c4ccc(O)c(O)c4Cl)C3)(C(=O)O)SC12)c1csc(N)n1)C(=O)O (stereo partly drawn) [Example 5, (3R,5R,6R)-6-((Z)-2-(2-aminothiazol-4-yl)-2-(((2-carboxypropan-2-yl)oxy)imino)acetamide)-3-((1-((Z)-2-(2-chloro-3,4-dihydroxyphenyl)-2-(hydroxyimino)acetyl)azetidin-3-yl)thio)-7-oxo-4-thia-1-azabicyclo[3.2.0]heptane-3-carboxylic acid] | ≤ 0.0625 µg/mL | 8 µg/mL (≈ 10.8 µM) | 16 µg/mL (≈ 21.5 µM) | – | – | – |
| CC(C)(O/N=C(\C(=O)N[C@@H]1C(=O)N2C[C@](SCCNC(=O)/C(=N\NC(N)=O)c3cc(O)c(O)cc3Cl)(C(=O)O)S[C@H]12)c1csc(N)n1)C(=O)O [Example 24, (3R,5R,6R)-6-((Z)-2-(2-aminothiazol-4-yl)-2-(((2-carboxypropan-2-yl)oxy)imino)acetamide)-3-((2-((Z)-2-(2-carbamoylhydrazinylidene)-2-(2-chloro-4,5-dihydroxyphenyl)acetamide)ethyl)thio)-7-oxo-4-thia-1-azabicyclo[3.2.0]heptane-3-carboxylic acid] | 0.5 µg/mL (≈ 0.646 µM) | 8 µg/mL (≈ 10.3 µM) | 4 µg/mL (≈ 5.17 µM) | – | – | – |
| CO[C@@H](CNC(=O)C(=O)c1ccc(O)c(O)c1Cl)CS[C@]1(C(=O)O)CN2C(=O)[C@@H](NC(=O)/C(=N\OC(C)(C)C(=O)O)c3csc(N)n3)C2S1 (stereo partly drawn) [Example 6, (3R,5R,6R)-6-((Z)-2-(2-aminothiazol-4-yl)-2-(((2-carboxypropane-2-yl)oxy)imino)acetamide)-3-(((S)-3-(2-(2-chloro-3,4-dihydroxyphenyl)-2-oxoacetamide)-2-methoxypropyl)thio)-7-oxo-4-thia-1-azabicyclo[3.2.0]heptane-3-carboxylic acid] | 0.25 µg/mL (≈ 0.328 µM) | 4 µg/mL (≈ 5.25 µM) | 2 µg/mL (≈ 2.63 µM) | – | – | – |
| CN(CCS[C@]1(C(=O)O)CN2C(=O)[C@@H](NC(=O)/C(=N\OC(C)(C)C(=O)O)c3csc(N)n3)[C@H]2S1)C(=O)c1ccc(O)c(O)c1Cl [Example 25, (3R,5R,6R)-6-((Z)-2-(2-aminothiazol-4-yl)-2-(((2-carboxypropan-2-yl)oxy)imino)acetamide)-3-((2-(2-chloro-3,4-dihydroxy-N-methylbenzamide)ethyl)thio)-7-oxo-4-thia-1-azabicyclo[3.2.0]heptane-3-carboxylic acid] | 1 µg/mL (≈ 1.42 µM) | 2 µg/mL (≈ 2.84 µM) | 1 µg/mL (≈ 1.42 µM) | – | – | – |
| CC(C)(O/N=C(\C(=O)N[C@@H]1C(=O)N2C[C@](SC[C@H]3COCCN3C(=O)c3ccc(O)c(O)c3Cl)(C(=O)O)SC12)c1csc(N)n1)C(=O)O (stereo partly drawn) [Example 20, (3R,5R,6R)-6-((Z)-2-(2-aminothiazol-4-yl)-2-(((2-carboxypropan-2-yl)oxy)imino)acetamide)-3-((((R)-4-(2-chloro-3,4-dihydroxybenzoyl)morpholin-3-yl)methyl)thio)-7-oxo-4-thia-1-azabicyclo[3.2.0]heptane-3-carboxylic acid] | 0.5 µg/mL (≈ 0.671 µM) | 4 µg/mL (≈ 5.37 µM) | 4 µg/mL (≈ 5.37 µM) | – | – | – |
| COC[C@H](CS[C@]1(C(=O)O)CN2C(=O)[C@@H](NC(=O)/C(=N\OC(C)(C)C(=O)O)c3csc(N)n3)C2S1)NC(=O)c1ccc(O)c(O)c1Cl (stereo partly drawn) [Example 19, (3R,5R,6R)-6-((Z)-2-(2-aminothiazol-4-yl)-2-(((2-carboxypropan-2-yl)oxy)imino)acetamide)-3-(((R)-2-(2-chloro-3,4-dihydroxybenzamide)-3-methoxypropyl)thio)-7-oxo-4-thia-1-azabicyclo[3.2.0]heptane-3-carboxylic acid] | 0.125 µg/mL (≈ 0.17 µM) | 1 µg/mL (≈ 1.36 µM) | 1 µg/mL (≈ 1.36 µM) | – | – | – |
| CC(C)(O/N=C(\C(=O)N[C@@H]1C(=O)N2C[C@](SCCNC(=O)/C(=N/NC(N)=O)c3ccc(O)c(O)c3Cl)(C(=O)O)S[C@H]12)c1csc(N)n1)C(=O)O [Example 13, (3R,5R,6R)-6-((Z)-2-(2-aminothiazole-4-yl)-2-(((2-carboxypropan-2-yl)oxy)imino)acetamide)-3-((2-((E)-2-(2-carbamoylhydrazono)-2-(2-chloro-3,4-dihydroxyphenyl)acetamide)ethyl)thio)-7-oxo-4-thia-1-azabicyclo[3.2.0]heptane-3-carboxylic acid] | ≤ 0.0625 µg/mL | 16 µg/mL (≈ 20.7 µM) | 8 µg/mL (≈ 10.3 µM) | – | – | – |
